Data: paper PMC3493109 (Biochemistry, 2012)

Key:
Format in all cases: binding
[1] = target: T1, glyoxylate carboligase (GCL) (Escherichia coli, UniProt P0AEP7, I393A); assay: CD titration at […] nm, Hill fit
[2] = target: glyoxylate carboligase (GCL) (Escherichia coli, UniProt P0AEP7, I393A/V51D); assay: CD titration at […] nm
[3] = target: T1, glyoxylate carboligase (GCL); assay: CD titration at […] nm

T1 sequence (P0AEP7 2-593 I393A limits assumed): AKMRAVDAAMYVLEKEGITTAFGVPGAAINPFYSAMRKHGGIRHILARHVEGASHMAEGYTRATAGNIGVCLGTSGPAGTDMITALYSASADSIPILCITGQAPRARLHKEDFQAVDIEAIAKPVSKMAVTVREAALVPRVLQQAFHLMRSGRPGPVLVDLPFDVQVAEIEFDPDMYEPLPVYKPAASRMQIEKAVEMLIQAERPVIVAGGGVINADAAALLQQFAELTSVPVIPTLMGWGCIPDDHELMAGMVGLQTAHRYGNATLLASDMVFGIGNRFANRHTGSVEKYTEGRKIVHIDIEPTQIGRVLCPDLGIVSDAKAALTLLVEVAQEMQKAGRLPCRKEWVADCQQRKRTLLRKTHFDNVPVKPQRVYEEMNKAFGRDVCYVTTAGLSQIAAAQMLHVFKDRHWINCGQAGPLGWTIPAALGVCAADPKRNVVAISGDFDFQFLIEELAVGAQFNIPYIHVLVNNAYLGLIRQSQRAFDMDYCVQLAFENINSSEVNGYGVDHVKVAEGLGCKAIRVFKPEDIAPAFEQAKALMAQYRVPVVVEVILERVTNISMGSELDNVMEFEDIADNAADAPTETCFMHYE
Sequence of glyoxylate carboligase (GCL) (Escherichia coli, UniProt P0AEP7, I393A/V51D) (P0AEP7 2-593 V51D/I393A limits assumed): as the sequence (P0AEP7 2-593 I393A limits assumed) above, with V50D counted along it

Structure (SMILES) | Kd [1] [µM] | Kd [2] [µM] | Kd [3] [µM]
CC(=O)C(=O)O [pyruvate] | 8.2 | – | –
COP(=O)(O)C(C)=O [MAP] | – | 110 ± 100 | 1400 ± 90
